According to patent US12433871B2, “Effects of age-dependent changes in cell size on endothelial cell growth” (The Medical College of Wisconsin, Inc., priority 2019, dated 2025):

Assays:
CDC42 = biological target: T1, CDC42 (Homo sapiens, UniProt P60953); experiment: GTP-CDC42 levels by immunofluorescence in aged human adipose ECs treated with ML141; assay type: cell-based; conditions: ECs from >50 y.o. human adipose tissues, ML141 500 nM
T1 construct: endogenous in cells; host or cells: primary endothelial cells isolated from >50 y.o. human adipose tissue
T1 sequence (P60953 whole entry): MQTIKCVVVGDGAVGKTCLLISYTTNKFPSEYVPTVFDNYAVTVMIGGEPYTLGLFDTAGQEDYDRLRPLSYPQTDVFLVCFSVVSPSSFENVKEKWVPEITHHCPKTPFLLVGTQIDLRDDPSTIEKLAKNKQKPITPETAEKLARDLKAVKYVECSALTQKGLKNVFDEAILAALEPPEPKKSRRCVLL
Excerpt: (§1) FIGS. 3A-3F show CDC42-YAP1 mediates cell size-dependent changes in EC senescence in aged ECs. (FIG. 3A) Representative immunoblots showing YAP1, YAP1S127 phosphorylation, and β-actin protein levels in ECs isolated from >50 y.o. human adipose tissues treated with retrovirus overexpressing full-length YAP1 or YAP1S127A (left). Graph showing the quantification of immunoblots (right, n=3, *, p<0.05). (FIG. 3B) IF micrographs showing P16^INK4A expression and DAPI in ECs isolated from >50 y.o. human adipose tissues treated with retrovirus overexpressing full-length YAP1 or YAP1S127A, cultured on FN-coated island of different sizes. Scale bar, 10 (FIG. 3C) Graph showing quantification of P16^INK4A integrated density (n=7, mean±s.e.m., *, p<0.05). […] Graph showing quantification of GTP-CDC42 integrated density (n=7, mean±s.e.m., *, p<0.05). […] Graph showing the quantification of immunoblots (bottom, n=3, *, p<0.05). […] Scale bar, Graphs showing quantification of P16^INK4A integrated density (bottom left) and nuclear YAP1 (bottom right) (n=7, mean±s.e.m., *, p<0.05).
(§2) In an in vitro cell culture study human adipose endothelial cells were treated with ML141 (500 nM with DMSO). […] One week later, the gel was removed and analyzed blood vessel formation using immunohistochemical analysis.

aged human adipose ECs = experiment: Mouse subcutaneous fibrin gel implantation (blood vessel formation and dextran leakage); assay type: in vivo, NSG mouse
Procedure: (§3) In an in vitro cell culture study human adipose endothelial cells were treated with ML141 (500 nM with DMSO). In an in vivo mouse study hydrogel mixed with young or aged human endothelial cells or in combination with ML141 (500 nM with DMSO) was implanted on the back of the immunocompromised mouse. One week later, the gel was removed and analyzed blood vessel formation using immunohistochemical analysis.
Mouse subcutaneous fibrin gel implantation—The in vivo animal study was carried out in strict accordance with the recommendations in the Guide for the Care and Use of Laboratory Animals of the National Institutes of Health. The protocol was reviewed and approved by the Animal Care and Use Committee of Medical College of Wisconsin. NOD scid gamma (NSG) mice (8 week old; Jackson Laboratory) and C57BL6 mice (Jackson Laboratory and NIA/NIH rodent colonies) were used for the study. Fibrin gel was fabricated as described. […] Vascular network formation of GFP-labeled human adipose ECs was evaluated by measuring the area and length of GFP-labeled blood vessels from five different areas of the gel. The vascular permeability was measured using low MW fluorescently labeled dextran (MW 4000, Sigma) leakage. […]

YAP1 [1] = experiment: YAP1 nuclear localization in aged ECs cultured on FN-coated microcontact-printed islands; assay type: cell-based, human; conditions: aged ECs on the large island (2500 μm2), ML141 500 nM, compared to those without ML141 treatment
Procedure: To directly analyze whether EC size controls YAP1 activity, we prepared microcontact-printed substrates consisting of square FN-coated islands (600-2500 μm2) surrounded by non-adhesive regions, in which we directly stamped FN (50 μg/ml) onto activated polydimethylsiloxane-coated cover slips and blocked unstamped areas with Pluronic F-127 [49, 50]. […] In contrast, when we cultured 24M old mouse lung ECs on the large islands, YAP1 was excluded from the nucleus, while YAP1 was in the nucleus on the medium size islands (FIGS. 6D and 6E).
as §3
Microcontact printing system—Stamps were created using soft lithography as described previously. Polydimethylsiloxane (PDMS) stamps were made by casting the polymer against master molds made by standard photolithography using the negative photoresist SU-8 (MicroChem). Substrates for stamping were fabricated by spin-coating a thin layer of PDMS (Sylgard-184, Dow Corning) onto glass coverslips. […]

[2] = tested on: ECs isolated from >50 y.o. human adipose tissues; experiment: EC senescence (p16INK4A staining) in aged ECs cultured on FN-coated microcontact-printed islands; assay type: cell-based; conditions: aged ECs on the large island (2500 μm2), ML141 500 nM, compared to those without ML141 treatment
Procedure: as §3
EC proliferation was analyzed by a BrdU incorporation assay or a Click-iT® Plus EdU Proliferation Assay. Mouse lung and human adipose ECs were plated in EBM2 with 2% serum, pulsed with 5 μM BrdU for 16 h, immunostained and imaged using a confocal Leica SP5 microscope. Cellular senescence was characterized using a SA-β galactosidase assay kit (cell signaling) or anti-P16^INK4A staining. The specificity of P16^INK4A staining was confirmed by 2nd Ab alone staining (Supplementary FIG. 1D). The microscopic images were analyzed on at least five images using imageJ software (NIH) and the same contrast and brightness were used to compare the images.
Microcontact printing system—Stamps were created using soft lithography as described previously. Polydimethylsiloxane (PDMS) stamps were made by casting the polymer against master molds made by standard photolithography using the negative photoresist SU-8 (MicroChem). […]

YAP1 [3] = experiment: Immunoblot of YAP1S127 phosphorylation in aged human adipose ECs treated with ML141; assay type: cell-based; conditions: ML141 500 nM, compared to those without ML141 treatment
Excerpt: as §1, §2

Structure (SMILES): COc1ccc(C2CC(c3ccccc3)=NN2c2ccc(S(N)(=O)=O)cc2)cc1 (stereo not drawn) [ML141]
- CDC42 activity (GTP-CDC42 integrated density) (CDC42): Inhibition of CDC42 activity
- aged EC-derived blood vessel length, times longer (aged human adipose ECs; fibrin gel with aged human adipose ECs, ML141 500 nM in gel, subcutaneous in NSG mouse, 7 days): 2.5 times
- leakage of fluorescently labeled dextran in the gel (aged human adipose ECs; gel with aged ECs, ML141 500 nM, dextran by systemic injection): attenuated the leakage of dextran
- levels of nuclear YAP1, times higher (YAP1 [1]): 1.2 times
- intensity of senescence marker p16INK4A, lower [2]: 45%
- decrease in YAP1S127 phosphorylation (YAP1 [3]): 72%
